Experiments:
[1] = molecular target: T1, PPAR beta/delta (Homo sapiens, UniProt Q03181); assay: Target selectivity counterscreen, PPAR β/δ reporter assay; assay type: cell-based; conditions: receptor agonist at ~EC80
T1 construct: host or cells: engineered reporter cells of the kit (analogous to the human PPARα kit)
T1 sequence (Q03181 1-441): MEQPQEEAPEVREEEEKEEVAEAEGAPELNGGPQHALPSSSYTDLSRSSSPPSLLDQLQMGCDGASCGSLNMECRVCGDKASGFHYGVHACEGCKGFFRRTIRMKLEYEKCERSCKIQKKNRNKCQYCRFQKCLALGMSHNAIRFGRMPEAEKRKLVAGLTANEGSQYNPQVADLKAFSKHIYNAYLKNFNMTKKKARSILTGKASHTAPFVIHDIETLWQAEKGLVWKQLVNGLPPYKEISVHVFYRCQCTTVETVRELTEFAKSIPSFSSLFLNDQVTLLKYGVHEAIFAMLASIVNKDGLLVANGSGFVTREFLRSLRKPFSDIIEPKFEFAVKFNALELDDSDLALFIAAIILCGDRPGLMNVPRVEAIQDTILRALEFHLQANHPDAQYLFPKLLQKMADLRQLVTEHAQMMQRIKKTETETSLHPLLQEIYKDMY
Experimental: (§1) Target Selectivity Assays
(§2) To determine species selectivity, a Mouse PPARα Reporter Assay System was used (Indigo Biosciences, Cat. #M00111). Activity of test compounds to antagonize or agonize other isoforms of human PPAR, for example β/δ and γ, were assessed using the corresponding kits from Indigo Biosciences (Cat. #IB00121 and #IB00101, respectively). In addition to PPAR activity, compounds were also screened for activity against other nuclear hormone receptors including Estrogen Receptor β, Glucocorticoid Receptor and Thyroid Receptor β using commercially available kits (Indigo Biosciences, Cat. #IB00411, IB00201 and IB01101, respectively). Each assay system from Indigo Biosciences uses technology analogous to the human PPARα kit, with the variance being that the cells used for each assay were engineered to over-express the receptor of interest. In addition, the appropriate receptor agonist (included with each kit) was used at ˜EC80 for assays in which antagonist potency was being assessed.

[2] = molecular target: T2, PPAR gamma (Homo sapiens, UniProt P37231); assay: Target selectivity counterscreen, PPAR γ reporter assay; assay type: cell-based; conditions: receptor agonist at ~EC80
T2 construct: host or cells: engineered reporter cells of the kit (analogous to the human PPARα kit)
T2 sequence (P37231 1-505): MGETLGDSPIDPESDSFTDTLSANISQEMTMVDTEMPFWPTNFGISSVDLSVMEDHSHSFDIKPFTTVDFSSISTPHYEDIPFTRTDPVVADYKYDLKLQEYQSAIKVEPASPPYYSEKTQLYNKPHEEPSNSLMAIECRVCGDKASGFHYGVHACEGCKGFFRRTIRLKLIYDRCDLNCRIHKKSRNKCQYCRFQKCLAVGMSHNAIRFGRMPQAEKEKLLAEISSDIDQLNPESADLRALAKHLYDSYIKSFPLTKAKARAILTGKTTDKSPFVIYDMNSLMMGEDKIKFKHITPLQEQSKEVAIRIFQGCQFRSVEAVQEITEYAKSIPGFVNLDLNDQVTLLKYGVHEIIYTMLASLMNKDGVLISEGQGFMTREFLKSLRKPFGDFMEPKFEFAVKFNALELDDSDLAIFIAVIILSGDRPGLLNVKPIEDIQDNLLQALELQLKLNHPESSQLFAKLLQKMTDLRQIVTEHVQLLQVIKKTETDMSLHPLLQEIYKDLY
Experimental: as §1, §2

[3] = molecular target: T3, Thyroid Receptor β (Homo sapiens, UniProt P10828); assay: Target selectivity counterscreen, Thyroid Receptor β reporter assay; assay type: cell-based; conditions: receptor agonist at ~EC80
T3 construct: host or cells: engineered reporter cells of the kit
T3 sequence (P10828 1-461): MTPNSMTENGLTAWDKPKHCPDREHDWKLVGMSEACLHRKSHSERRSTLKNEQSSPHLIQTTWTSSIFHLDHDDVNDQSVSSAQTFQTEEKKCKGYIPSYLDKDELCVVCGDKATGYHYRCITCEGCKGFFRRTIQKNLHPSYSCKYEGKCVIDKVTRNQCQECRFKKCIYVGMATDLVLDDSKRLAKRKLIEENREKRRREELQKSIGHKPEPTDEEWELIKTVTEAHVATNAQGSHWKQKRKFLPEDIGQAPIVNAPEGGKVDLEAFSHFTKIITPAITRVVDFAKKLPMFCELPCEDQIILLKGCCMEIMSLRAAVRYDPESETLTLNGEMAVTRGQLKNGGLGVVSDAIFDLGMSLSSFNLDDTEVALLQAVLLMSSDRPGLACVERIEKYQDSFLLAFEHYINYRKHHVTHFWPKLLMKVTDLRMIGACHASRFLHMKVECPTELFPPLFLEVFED
Experimental: as §1, §2

[4] = molecular target: T4, Estrogen Receptor β (Homo sapiens, UniProt Q92731); assay: Target selectivity counterscreen, Estrogen Receptor β reporter assay; assay type: cell-based; conditions: receptor agonist at ~EC80
T4 construct: host or cells: engineered reporter cells of the kit
T4 sequence (Q92731 whole entry): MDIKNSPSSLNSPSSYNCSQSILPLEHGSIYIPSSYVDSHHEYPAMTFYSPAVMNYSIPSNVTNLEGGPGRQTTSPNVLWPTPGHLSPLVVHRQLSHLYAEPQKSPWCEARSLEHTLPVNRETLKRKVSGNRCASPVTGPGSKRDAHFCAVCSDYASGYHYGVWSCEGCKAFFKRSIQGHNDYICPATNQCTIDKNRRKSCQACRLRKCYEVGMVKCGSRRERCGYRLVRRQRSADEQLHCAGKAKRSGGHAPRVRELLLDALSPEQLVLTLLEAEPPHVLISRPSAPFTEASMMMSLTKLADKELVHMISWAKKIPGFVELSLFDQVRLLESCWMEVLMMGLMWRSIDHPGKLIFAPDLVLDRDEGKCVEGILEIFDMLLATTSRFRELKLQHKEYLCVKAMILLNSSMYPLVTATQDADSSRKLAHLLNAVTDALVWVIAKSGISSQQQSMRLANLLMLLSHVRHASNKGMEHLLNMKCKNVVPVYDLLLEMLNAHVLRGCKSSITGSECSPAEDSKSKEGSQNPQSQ
Experimental: as §1, §2

[5] = tested on: B16F10 melanoma cells; assay: In vivo cancer model: B16F10 model of pulmonary metastasis; set-up: species or system C57BL/6 mice; conditions: oral doses 0.3, 3 and 30 mg/kg daily, day 21, FIG. 1
Experimental: In Vivo Cancer Model: B16F10 Model of Pulmonary Metastasis
B16F10 cells were cultured in standard growth media, harvested when approximately 50% confluent and injected into C57BL/6 mice via the tail vein (50,000 cells per mouse in 200 μL). Mice were treated daily with test compound. On day 21, mice were euthanized. Lungs were harvested and placed into Fekete's solution overnight to facilitate visualization of the tumors. Black nodules were enumerated.
Statistics were performed by ANOVA with Dunnett's Multiple Comparison Test post-hoc to determine statistical differences from vehicle treatment group. * denotes P<0.05, while *** denotes P<0.001.

CCOc1ccc(-c2cccc(CCCc3nn(Cc4ccc(C(C)(C)C)cc4)c(=O)n3CC)c2)cc1CC(=O)O [Example 6, 2-(3′-(3-(1-(4-(tert-Butyl)benzyl)-4-ethyl-5-oxo-4,5-dihydro-1H-1,2,4-triazol-3-yl)propyl)-4-ethoxy-[1,1′-biphenyl]-3-yl)acetic acid]
IC50 [1]: 13.3 µM
IC50 [2]: 39.8 µM
IC50 [3]: 30.8 µM
IC50 [4]: 19.4 µM
metastasis of B16F10 melanoma cells to the lung (black nodules enumerated) [5]: inhibition of metastasis
